# Source: US7598258B2, “Quinoline derivatives and quinazoline derivatives inhibiting autophosphorylation of macrophage colony stimulating factor receptor” (Kirin Beer Kabushiki Kaisha, priority 2002, dated 2009)
# Target: T1, mouse c-fms (Mus musculus, UniProt P09581)
# T1 construct: Macrophage-like cell line BAC-1.2F5 which expresses c-fms as a M-CSF receptor on cell membranes; endogenous in cells; host or cells: BAC-1.2F5 mouse macrophage-like cell line
# T1 sequence (P09581 20-977): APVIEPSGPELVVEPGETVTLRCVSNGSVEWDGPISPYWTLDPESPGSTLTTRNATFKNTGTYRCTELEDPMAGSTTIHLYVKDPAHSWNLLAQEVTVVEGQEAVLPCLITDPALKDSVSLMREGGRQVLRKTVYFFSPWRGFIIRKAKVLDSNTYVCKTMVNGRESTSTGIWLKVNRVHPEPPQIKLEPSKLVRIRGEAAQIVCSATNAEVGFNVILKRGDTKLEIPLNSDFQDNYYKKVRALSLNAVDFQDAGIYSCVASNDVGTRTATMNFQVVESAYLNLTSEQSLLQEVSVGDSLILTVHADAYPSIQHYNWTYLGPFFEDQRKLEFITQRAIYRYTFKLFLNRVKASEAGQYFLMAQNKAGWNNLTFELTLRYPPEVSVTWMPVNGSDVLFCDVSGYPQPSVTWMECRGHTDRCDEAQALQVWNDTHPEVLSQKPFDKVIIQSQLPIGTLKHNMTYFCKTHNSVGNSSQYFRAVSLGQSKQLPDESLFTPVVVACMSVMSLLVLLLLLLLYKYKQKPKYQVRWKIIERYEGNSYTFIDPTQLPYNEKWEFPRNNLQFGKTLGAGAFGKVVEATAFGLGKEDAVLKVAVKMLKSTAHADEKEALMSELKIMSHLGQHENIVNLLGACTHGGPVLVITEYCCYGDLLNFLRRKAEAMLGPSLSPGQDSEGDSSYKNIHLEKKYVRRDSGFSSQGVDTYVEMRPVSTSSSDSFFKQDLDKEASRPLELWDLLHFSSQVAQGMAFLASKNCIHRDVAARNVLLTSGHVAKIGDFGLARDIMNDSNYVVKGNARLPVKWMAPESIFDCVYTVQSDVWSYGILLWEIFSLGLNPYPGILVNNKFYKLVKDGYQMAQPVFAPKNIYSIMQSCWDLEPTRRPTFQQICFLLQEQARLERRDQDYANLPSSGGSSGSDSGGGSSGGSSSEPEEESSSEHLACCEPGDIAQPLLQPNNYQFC
# Assay: Inhibition of c-fms autophosphorylation in macrophage-like cell line BAC-1.2F5 by M-CSF stimulation (ELISA)
# Format: cell-based
# Details: BAC-1.2F5 cells, human recombinant M-CSF 50 ng/ml, read-out: c-fms autophosphorylation 50% inhibitory concentration (IC50)
# Protocol: Macrophage-like cell line BAC-1.2F5 which expresses c-fms as a M-CSF receptor on cell membranes (CLAUDIA M. et al., J. Cell. Physiol., 130, 420-427 (1987), “Isolation and Characterization of a Cloned Growth Factor Dependent Macrophage Cell Line, BAC1.2F5”) was cultured at 37° C. in a DMEM medium containing L-cell supernatant and 10% fetal calf serum (GIBCO BRL) in a 5% CO2 incubator until about 50 to 70% confluent. The harvested cells were inoculated into wells, each containing the same medium, in a collagen type I coat 96-well flat-bottom plate in an amount of 5.0×10^4 per well, and cultured at 37° C. for 12 hr. Thereafter, the medium was replaced with a DMEM medium containing a 0.1% fetal calf serum and cultured for 12 hr. Thereafter, a test compound dissolved in dimethyl sulfoxide was added to each well, and cells were incubated at 37° C. for one hr. Human recombinant M-CSF was added to a final concentration of 50 ng/ml, and cells were stimulated at 37° C. for 6 min. After the medium was removed, 50 μl of a solubilization buffer (20 mM HEPES (pH 7.4), 150 mM NaCl, 0.2% Triton X-100, 10% glycerol, 5 mM sodium orthovanadylate, 5 mM disodium ethylenediaminetetraacetate, and 2 mM Na4P2O7) was added thereto. The mixture was shaken at 4° C. for 2 hr to prepare a cell extract as an assay sample which was then used for an ELISA assay.
# The plate for the ELISA assay was prepared as follows. Phosphate buffered saline (50 μl, pH 7.4) containing 5 μg/ml of anti-phospho-tyrosine antibody (PY20; Transduction Laboratories) was added to a microplate for ELISA (Maxisorp; purchased from NUNC), followed by standing at 4° C. overnight to be immobilized on the wells. Thereafter, each well was washed twice with 200 μl of a Ca- and Mg-free phosphate buffer containing 0.1% Tween-20 (hereinafter referred to as “PBS-T”), and 200 μl of a blocking solution (Dainippon Pharmaceutical Co. Ltd.: BlockAce) was added to each well, and the wells were then allowed to stand at room temperature for 2 hr for blocking.
# Separately, phosphate buffered saline (50 μl, pH 7.4) containing 5 μg/ml of anti-phospho-tyrosine antibody (PY20; Transduction Laboratories) was added to a microplate for ELISA (Maxisorp; purchased from NUNC), followed by standing at 4° C. overnight to form a solid phase on the wells. After washing of the plate, 300 μl of a blocking solution was added, followed by standing at room temperature for 2 hr to perform blocking. After washing, the whole quantity of the cell extract was transferred to the wells, and the plate was then allowed to stand at 4° C. overnight. After washing, anti-c-fms antiserum (Upstate Biotechnology, Inc.) was allowed to react at room temperature for one hr, and, after washing, a peroxidase-labeled anti-rabbit Ig antibody (Amersham) was allowed to react at room temperature for one hr. After washing, a chromophoric substrate for peroxidase (Sumitomo Bakelite Co., Ltd.) was added thereto to initiate a reaction. After a suitable level of color development, a reaction termination solution was added to stop the reaction, and the absorbance at 450 nm was measured with a microplate reader. The c-fms phosphorylation activity for each well was determined by presuming the absorbance without the addition of the test compound and with the addition of M-CSF to be 100% c-fms phosphorylation activity and the absorbance without the addition of the test compound and M-CSF to be 0% c-fms phosphorylation activity. The concentration of the test compound was varied on several levels, the c-fms phosphorylation inhibitory rate was determined for each case, and the concentration of the test compound necessary for inhibiting 50% of c-fms phosphorylation (IC50) was calculated.
row,SMILES,IC50
1,"COc1cc2nccc(Oc3cc(C)c(NC(=O)NC(C)c4ccc(F)cc4)cc3C)c2cc1OC (stereo not shown) [Example 7, N-{4-[(6,7-Dimethoxy-4-quinolyl)oxy]-2,5-dimethylphenyl}-N′-[1-(4-fluorophenyl)ethyl]urea]",20.2 nM
2,"COc1cc2nccc(Oc3cc(C)c(NC(=O)N[C@@H](C)c4ccc(F)cc4)cc3C)c2cc1OC [Example 8, N-{4-[(6,7-Dimethoxy-4-quinolyl)oxy]-2,5-dimethylphenyl}-N′-[(1S)-1-(4-fluorophenyl)ethyl]urea]",22.5 nM
3,"COc1cc2nccc(Oc3cc(C)c(NC(=O)N[C@H](C)c4ccc(F)cc4)cc3C)c2cc1OC [Example 9, N-{4-[(6,7-Dimethoxy-4-quinolyl)oxy]-2,5-dimethylphenyl}-N′-[(1R)-1-(4-fluorophenyl)ethyl]urea]",17.4 nM
4,"COc1cc2nccc(Oc3ccc(NC(=O)N[C@@H](C)c4ccc(F)cc4)cc3Cl)c2cc1OC [Example 11, N-{3-Chloro-4-[(6,7-dimethoxy-4-quinolyl)oxy]phenyl}-N′-[(1S)-1-(4-fluorophenyl)ethyl]urea]",11.7 nM
5,"COc1cc2nccc(Oc3ccc(NC(=O)N[C@H](C)c4ccc(F)cc4)cc3Cl)c2cc1OC [Example 12, N-{3-Chloro-4-[(6,7-dimethoxy-4-quinolyl)oxy]phenyl}-N′-[(1R)-1-(4-fluorophenyl)ethyl]urea]",10.9 nM
6,"COc1cc2nccc(Oc3ccc(NC(=O)N[C@@H](C)c4ccc(F)cc4)c(C)c3)c2cc1OC [Example 14, N-{4-[(6,7-Dimethoxy-4-quinolyl)oxy]-2-methylphenyl}-N′-[(1S)-1-(4-fluorophenyl)ethyl]urea]",13 nM
7,"COc1cc2nccc(Oc3ccc(NC(=O)NC(C)c4ccc(F)cc4)c(C(F)(F)F)c3)c2cc1OC (stereo not shown) [Example 19, N-[4-[(6,7-Dimethoxy-4-quinolyl)oxy]-2-(trifluoromethyl)phenyl]-N′-[1-(4-fluorophenyl)ethyl]urea]",8.1 nM
8,"COc1cc2nccc(Oc3ccc(NC(=O)N[C@H](C)c4ccc(F)cc4)c(C(F)(F)F)c3)c2cc1OC [Example 21, N-[4-[(6,7-Dimethoxy-4-quinolyl)oxy]-2-(trifluoromethyl)phenyl]-N′-[(1R)-1-(4-fluorophenyl)ethyl]urea]",9.8 nM
9,"COc1cc2nccc(Oc3ccc(NC(=O)NC(C)c4ccc(F)cc4)cc3OC)c2cc1OC (stereo not shown) [Example 22, N-{4-[(6,7-Dimethoxy-4-quinolyl)oxy]-3-methoxyphenyl}-N′-[1-(4-fluorophenyl)ethyl]urea]",7.7 nM
10,"COc1cc2nccc(Oc3ccc(NC(=O)N[C@@H](C)c4ccc(F)cc4)cc3OC)c2cc1OC [Example 23, N-{4-[(6,7-Dimethoxy-4-quinolyl)oxy]-3-methoxyphenyl}-N′-[(1S)-1-(4-fluorophenyl)ethyl]urea]",10.2 nM
11,"COc1cc2nccc(Oc3ccc(NC(=O)N[C@H](C)c4ccc(F)cc4)cc3OC)c2cc1OC [Example 24, N-{4-[(6,7-Dimethoxy-4-quinolyl)oxy]-3-methoxyphenyl}-N′-[(1R)-1-(4-fluorophenyl)ethyl]urea]",13.2 nM

# Now those with a lower IC50, led by results:
row,IC50,SMILES
1,2.4 nM,"COc1cc2nccc(Oc3ccc(NC(=O)NC(C)c4ccc(F)cc4)cc3)c2cc1OC (stereo not shown) [Example 1, N-{4-[(6,7-Dimethoxy-4-quinolyl)oxy]phenyl}-N′-[1-(4-fluorophenyl)ethyl]urea]"
2,4 nM,"COc1cc2nccc(Oc3ccc(NC(=O)NC(C)c4ccc(F)cc4)c(Cl)c3)c2cc1OC (stereo not shown) [Example 4, N-{2-Chloro-4-[(6,7-dimethoxy-4-quinolyl)oxy]phenyl}-N′-[1-(4-fluorophenyl)ethyl]urea]"
3,2.2 nM,"COc1cc2nccc(Oc3ccc(NC(=O)N[C@@H](C)c4ccc(F)cc4)c(Cl)c3)c2cc1OC [Example 5, N-{2-Chloro-4-[(6,7-dimethoxy-4-quinolyl)oxy]phenyl}-N′-[(1S)-1-(4-fluorophenyl)ethyl]urea]"
4,6 nM,"COc1cc2nccc(Oc3ccc(NC(=O)N[C@H](C)c4ccc(F)cc4)c(Cl)c3)c2cc1OC [Example 6, N-{2-Chloro-4-[(6,7-dimethoxy-4-quinolyl)oxy]phenyl}-N′-[(1R)-1-(4-fluorophenyl)ethyl]urea]"
5,7.1 nM,"COc1cc2nccc(Oc3ccc(NC(=O)NC(C)c4ccc(F)cc4)cc3Cl)c2cc1OC (stereo not shown) [Example 10, N-{3-Chloro-4-[(6,7-dimethoxy-4-quinolyl)oxy]phenyl}-N′-[1-(4-fluorophenyl)ethyl]urea]"
6,6.1 nM,"COc1cc2nccc(Oc3ccc(NC(=O)NC(C)c4ccc(F)cc4)c(C)c3)c2cc1OC (stereo not shown) [Example 13, N-{4-[(6,7-Dimethoxy-4-quinolyl)oxy]-2-methylphenyl}-N′-[1-(4-fluorophenyl)ethyl]urea]"
7,5.7 nM,"COc1cc2nccc(Oc3ccc(NC(=O)N[C@H](C)c4ccc(F)cc4)c(C)c3)c2cc1OC [Example 15, N-{4-[(6,7-Dimethoxy-4-quinolyl)oxy]-2-methylphenyl}-N′-[(1R)-1-(4-fluorophenyl)ethyl]urea]"
8,2 nM,"COc1cc(Oc2ccnc3cc(OC)c(OC)cc23)ccc1NC(=O)NC(C)c1ccc(F)cc1 (stereo not shown) [Example 16, N-{4-[(6,7-Dimethoxy-4-quinolyl)oxy]-2-methoxyphenyl}-N′-[1-(4-fluorophenyl)ethyl]urea]"
9,3.9 nM,"COc1cc(Oc2ccnc3cc(OC)c(OC)cc23)ccc1NC(=O)N[C@@H](C)c1ccc(F)cc1 [Example 17, N-{4-[(6,7-Dimethoxy-4-quinolyl)oxy]-2-methoxyphenyl}-N′-[(1S)-1-(4-fluorophenyl)ethyl]urea]"
10,3.7 nM,"COc1cc(Oc2ccnc3cc(OC)c(OC)cc23)ccc1NC(=O)N[C@H](C)c1ccc(F)cc1 [Example 18, N-{4-[(6,7-Dimethoxy-4-quinolyl)oxy]-2-methoxyphenyl}-N′-[(1R)-1-(4-fluorophenyl)ethyl]urea]"
11,6.2 nM,"COc1cc2nccc(Oc3ccc(NC(=O)N[C@@H](C)c4ccc(F)cc4)c(C(F)(F)F)c3)c2cc1OC [Example 20, N-[4-[(6,7-Dimethoxy-4-quinolyl)oxy]-2-(trifluoromethyl)phenyl]-N′-[(1S)-1-(4-fluorophenyl)ethyl]urea]"
